ChEMBL document CHEMBL1800013, “Small molecule inhibitors of SHP2 tyrosine phosphatase discovered by virtual screening” (Bioorg Med Chem Lett, 2011)
Active and inactive are the calls of the source. No cut-off for these calls is given here.

Assays:
[1] = biological target: T1, Tyrosine-protein phosphatase non-receptor type 1 (Homo sapiens, UniProt P18031); experiment: Inhibition of PTP1B
T1 sequence (P18031 whole entry): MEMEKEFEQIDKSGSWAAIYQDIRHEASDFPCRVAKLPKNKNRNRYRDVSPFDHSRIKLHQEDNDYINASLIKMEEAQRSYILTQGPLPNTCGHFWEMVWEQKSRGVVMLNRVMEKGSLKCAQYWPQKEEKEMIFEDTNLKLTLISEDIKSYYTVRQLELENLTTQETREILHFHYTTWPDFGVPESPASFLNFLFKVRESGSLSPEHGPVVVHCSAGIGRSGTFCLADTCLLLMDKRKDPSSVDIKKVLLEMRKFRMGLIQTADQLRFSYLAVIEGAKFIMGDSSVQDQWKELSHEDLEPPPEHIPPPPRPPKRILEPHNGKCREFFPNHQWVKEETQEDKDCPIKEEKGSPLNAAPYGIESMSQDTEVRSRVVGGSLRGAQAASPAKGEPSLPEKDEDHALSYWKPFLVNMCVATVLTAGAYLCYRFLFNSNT

[2] = biological target: T2, Tyrosine-protein phosphatase non-receptor type 22 (Homo sapiens) (UniProt Q9Y2R2); experiment: Inhibition of LYP at 100 uM
T2 sequence (whole entry): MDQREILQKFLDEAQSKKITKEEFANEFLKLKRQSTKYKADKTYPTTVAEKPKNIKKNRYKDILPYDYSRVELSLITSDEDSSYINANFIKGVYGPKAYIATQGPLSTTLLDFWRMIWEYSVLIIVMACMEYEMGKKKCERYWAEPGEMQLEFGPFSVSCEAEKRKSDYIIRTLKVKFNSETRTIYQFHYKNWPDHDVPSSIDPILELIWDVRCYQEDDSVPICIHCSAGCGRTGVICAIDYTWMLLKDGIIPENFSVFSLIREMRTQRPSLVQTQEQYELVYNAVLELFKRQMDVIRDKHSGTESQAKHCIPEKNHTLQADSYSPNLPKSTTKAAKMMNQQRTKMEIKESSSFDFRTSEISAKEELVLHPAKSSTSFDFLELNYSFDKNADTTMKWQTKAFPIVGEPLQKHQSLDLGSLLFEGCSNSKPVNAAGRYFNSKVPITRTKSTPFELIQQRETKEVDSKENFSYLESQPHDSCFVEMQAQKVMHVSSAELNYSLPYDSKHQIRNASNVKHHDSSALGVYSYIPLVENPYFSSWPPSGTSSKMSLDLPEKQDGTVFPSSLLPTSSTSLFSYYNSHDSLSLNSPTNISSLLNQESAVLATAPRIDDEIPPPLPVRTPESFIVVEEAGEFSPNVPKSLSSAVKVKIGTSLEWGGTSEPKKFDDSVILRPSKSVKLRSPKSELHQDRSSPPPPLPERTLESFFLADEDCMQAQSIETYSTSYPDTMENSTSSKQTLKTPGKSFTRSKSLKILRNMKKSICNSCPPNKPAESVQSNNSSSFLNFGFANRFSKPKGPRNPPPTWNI

[3] = biological target: Dual specificity protein phosphatase 3 (Homo sapiens) (UniProt P51452); experiment: Inhibition of VHR at 100 uM
Sequence of Dual specificity protein phosphatase 3 (Homo sapiens) (P51452 whole entry, looked up): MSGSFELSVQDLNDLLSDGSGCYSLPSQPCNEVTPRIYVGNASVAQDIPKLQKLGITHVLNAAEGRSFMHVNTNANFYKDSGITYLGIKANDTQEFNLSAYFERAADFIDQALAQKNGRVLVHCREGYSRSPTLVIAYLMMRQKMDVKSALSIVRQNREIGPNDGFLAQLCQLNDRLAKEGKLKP

**Q.** How did the IC50 [1] turn out when Cc1cc(S(=O)(=O)O)c(S(=O)(=O)O)cc1N1N=C(C(=O)O)CC1=O was run?
**A.** 118 µM

**Q.** What about the inhibition [2] of the same compound?
**A.** inactive

**Q.** What about the inhibition [3] of the same compound?
**A.** inactive
